The experiment deals with P70S6K (T412E mutant) (Homo sapiens (Human), UniProt P23443, T412E). Kind of experiment: P70S6K enzyme assay. As to conditions: 3 nM P70S6K T412E mutant, 24 μM ATP, 1 μM FITC-AHA-AKRRRLSSLRA-OH substrate peptide, 90 min at 25° C. Type of experiment: biochemical. In short, it runs like this: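 P70S6K T412E mutant (3 nM) with 24 μM ATP and 1 μM FITC-labelled S6-derived peptide in Hepes pH 7.5, MgCl2, DTT, Brij buffer; 90 min at 25° C, stopped with EDTA. Phosphorylated product and substrate peptides separated by microfluidic mobility shift; IC50 values derived.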
Sequence of P70S6K (T412E mutant) (P23443 whole entry T412E): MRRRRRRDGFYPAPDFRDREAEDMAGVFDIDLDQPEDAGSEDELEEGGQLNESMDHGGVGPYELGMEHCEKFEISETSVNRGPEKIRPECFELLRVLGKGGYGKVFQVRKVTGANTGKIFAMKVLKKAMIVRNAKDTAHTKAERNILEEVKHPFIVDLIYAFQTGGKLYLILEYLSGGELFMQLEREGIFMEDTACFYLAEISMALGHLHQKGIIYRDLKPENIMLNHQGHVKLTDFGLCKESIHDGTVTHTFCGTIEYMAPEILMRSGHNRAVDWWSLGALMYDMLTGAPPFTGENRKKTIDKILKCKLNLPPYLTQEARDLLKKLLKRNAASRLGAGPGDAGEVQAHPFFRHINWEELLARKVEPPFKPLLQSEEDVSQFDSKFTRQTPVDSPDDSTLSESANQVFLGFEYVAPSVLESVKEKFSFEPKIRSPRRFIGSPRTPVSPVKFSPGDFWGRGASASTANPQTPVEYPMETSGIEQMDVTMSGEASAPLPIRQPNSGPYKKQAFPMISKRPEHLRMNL
As usually defined, the IC50 is the midpoint of a concentration-inhibition curve. A high value points to a need for much substance. The compound `CN(C)C[C@H](c1ccc(C(F)(F)F)cc1)N1CCN(c2ncnc(N)c2-c2ccc(F)cc2)CC1` [Example 16, (S)-6-(4-(2-(dimethylamino)-1-(4-(trifluoromethyl)phenyl)ethyl)piperazin-1-yl)-5-(4-fluorophenyl)pyrimidin-4-amine] registered a half-maximal inhibitory concentration (IC50) of 4.9 nM.

As for `Nc1ncnc(N2CCN(C(CN3CCC3)c3ccc(Cl)c(Cl)c3)CC2)c1-c1cn[nH]c1` (stereo not shown) [Example 131, 6-{4-[2-Azetidin-1-yl-1-(3,4-dichloro-phenyl)-ethyl]-piperazin-1-yl}-5-(1H-pyrazol-4-yl)-pyrimidin-4-ylamine], the half-maximal inhibitory concentration (IC50) is 1500 nM. Compared with the last compound, the IC50 is about 310-fold higher. Next, `CN(C)C[C@@H](c1ccc(C(F)(F)F)cc1)N1CCN(c2ncnc(N)c2-c2ccc(F)cc2)CC1` [Example 17, (R)-6-(4-(2-(dimethylamino)-1-(4-(trifluoromethyl)phenyl)ethyl)piperazin-1-yl)-5-(4-fluorophenyl)pyrimidin-4-amine]: 1.7 nM. The result for `COC[C@H](NC(=O)C1(N)CCN(c2ncnc(N)c2-c2cn[nH]c2)CC1)c1ccc(Cl)cc1` [Example 240, 4-Amino-1-[6-amino-5-(1H-pyrazol-4-yl)-pyrimidin-4-yl]-piperidine-4-carboxylic acid [(R)-1-(4-chloro-phenyl)-2-methoxy-ethyl]-amide] reads 100 nM; that for `Nc1ncnc(N2CCN(C(CN3CCC3)c3cccc(C(F)(F)F)c3Cl)CC2)c1-c1cn[nH]c1` (stereo not shown) [Example 134, 6-{4-[2-Azetidin-1-yl-1-(2-chloro-3-trifluoromethyl-phenyl)-ethyl]-piperazin-1-yl}-5-(1H-pyrazol-4-yl)-pyrimidin-4-ylamine], 300 nM; that for `Nc1ncnc(N2CCC(N)(CNC(=O)c3ccc(F)cc3F)C2)c1-c1ccccc1` (stereo not shown) [Example 203, N-[3-Amino-1-(6-amino-5-phenyl-pyrimidin-4-yl)-pyrrolidin-3-ylmethyl]-2,4-difluoro-benzamide], 5.3 nM. Next, `N#Cc1c(N)ncnc1N1CCC(N)(C(=O)N[C@@H](CCO)c2ccc(F)cc2)CC1` [Example 243, 4-Amino-1-(6-amino-5-cyano-pyrimidin-4-yl)-piperidine-4-carboxylic acid [(S)-1-(4-fluoro-phenyl)-3-hydroxy-propyl]-amide]: 390 nM.

The values above are taken from patent US9321760B2 (Merck Patent GmbH, priority 2011, dated 2016).
